Data taken from article PMC12169662, “De Novo-Designed APC/C Inhibitors Provide a Rationale for Targeting RING-Type E3 Ubiquitin Ligases” (Journal of Medicinal Chemistry, 2025).
Bridge positions count the residues as written; N and C are the ends. Square brackets hold non-standard residues; d marks the D form. Peptide text beside a SMILES is read from it. R8 = C=CCCCCCC[C@@](C)(N)C(=O)O; S5 = C=CCCC[C@](C)(N)C(=O)O; Pra = C#CC[C@H](N)C(=O)O

How the values were obtained:
[1] = molecular target: T1, APC/C (Homo sapiens, UniProt Q9NYG5); test: In vitro APC/C ubiquitylation assay with APC/C immunoprecipitated from metaphase HeLa cells; assay type: biochemical; set-up: immunoprecipitated APC/C from metaphase-synchronized HeLa cells; endogenous in cells; host or cells: metaphase-synchronized HeLa cells (APC/C); the E2 is recombinant; details: 100 μM, end-point assay, UBE2C as E2, dye-labeled securin, in-gel scanning, n = 5
Source text: To assess prevention of RING activation by our E2 mimetics, and thus validate our design strategy, we employed in vitro APC/C ubiquitylation assays containing immunoprecipitated APC/C from metaphase-synchronized HeLa cells, recombinant UBA1 (E1), UBE2C (E2), ubiquitin, and dye-labeled metaphase APC/C substrate securin (Figure A). […] To immobilize BH3 to beads, we used our models to introduce propargylglycine (Pra) (Pra-BH3) at the N-term and thus enable side chain conjugation with azide agarose beads by click chemistry (Figure E). […] Pra-BH3 also precipitated other RING-type E3 including BRCA1, BMI1, MDM2, c-CBL and c-IAP1 (Figure F). However, except for c-CBL and MDM2, those interactions were weaker, as judged by the degree of enrichment over the input of the assay (Figure G).
(§1) APC/C-dependent ubiquitination reactions were performed at 30 °C in 30 mM HEPES pH 7.4, 175 mM NaCl, 8 mM MgCl2, 0.05% Tween-20, 1 mM DTT and 5% glycerol and contained 20 nM recombinant APC/C, 340 nM CDC20, 46 nM GST-UBA1, 340 nM UBE2C (alternatively 400 nM UBE2D, 280 nM UBE2S), 21 μM His6-ubiquitin or if it is indicated 21 μM methylated-ubiquitin (BostonBiochem), 2.6 mM ATP, 10 mM phosphocreatine, and 11 μM creatine kinase. […] Detection of fluorescently labeled substrates was done by a quantitative near-infrared scanning system, Odyssey.

[2] = molecular target: T2, c-CBL (Homo sapiens, UniProt P22681); test: Pull-down binding assay from HeLa cell extract, Western blot; details: peptide clicked to azide agarose beads, n = 3
T2 construct: endogenous in cells; host or cells: HeLa
Procedure: (§2) For protein transfer, a 0.45 μm Immobilon-FL PVDF membrane (Merck Millipore) was used. The membrane was activated in ethanol and then transferred to Blotting buffer (50 mM SDS-MOPS, 50 mM Tris base, 0.1% SDS, 1 mM EDTA, and 20% EtOH). The proteins were transferred using a wet transfer for 1.5 h at 400 mA. Subsequently, the membrane was incubated with the blocking solution, 10% milk in PBS-T (0.02% Tween-20 in PBS), for 1 h at room temperature. To detect proteins of interest, the membrane was incubated with primary antibodies overnight at 4° C, followed by 3 washes for 10 min with PBS-T and incubation with IRDye-labeled secondary antibodies for 1 h. Prior to detection, the membrane was washed twice with PBS-T for 10 min and once with PBS for 10 min. The detection was done using the quantitative near-infrared scanning system Odyssey (LI-COR Biosciences).
(§3) HeLa cell pellet was resuspended in the extraction buffer (30 mM HEPES pH 7.5, 175 mM NaCl, 2.5 mM MgCl2, 0.25% NP40, 10% glycerol, 1 mM DTT supplied with complete protease inhibitor cocktail (Roche), PhosSTOP phosphatase inhibitors (Roche), 1 mM PMSF, 10 μM MG132) and incubated for 20 min on ice, followed by centrifugation to clear the lysate for 15 min at 4 °C 16,100 g. In the meantime, inhibitor molecules containing the propargyl-Gly-OH (Pra) chemical group were covalently attached to the azide agarose resin (Jena Bioscience) by Cu(I)-catalyzed azide–alkyne cycloaddition reaction. Specifically, the inhibitor molecules were mixed with azide agarose resin in a ratio of 0.125 μmol inhibitor/20 μL agarose resin. The reaction was catalyzed by 0.1 mM CuSO4, 0.5 mM THPTA (Sigma-Aldrich), and 5 mM Sodium ascorbate and was performed on the rotating wheel for 30 min at room temperature in a volume of 1 mL. Subsequently, the resin was washed five times with extraction buffer. The inhibitor-agarose resin was added to 2 mg of HeLa cell extract and incubated at 4 °C for 2 h. Afterward, the resin was washed four times with extraction buffer. Pull-down proteins were eluted by incubation with prewarmed 1x LDS sample buffer for 10 min at room temperature, followed by taking supernatant supplemented with 100 mM DTT and boiling for 10 min. Afterward, SDS PAGE and Western blot analyses were performed to detect the indicated proteins.

[3] = molecular target: T3, BRCA1 (Homo sapiens, UniProt P38398); test: as above; details: peptide clicked to azide agarose beads, n = 3
T3 construct: endogenous in cells; host or cells: HeLa
Procedure: as §2, §3

[4] = molecular target: T4, RBX1 (Homo sapiens, UniProt P62877); test: as above; details: n = 3; for binding to RBX1, Pra-H1 versus Pra-BH3: pull-down with metaphase extracts
T4 construct: endogenous in cells; host or cells: HeLa
Procedure: as §2, §3

[5] = molecular target: T5, c-IAP1 (Homo sapiens, UniProt Q13490); test: as above; details: peptide clicked to azide agarose beads, n = 3
T5 construct: endogenous in cells; host or cells: HeLa
Procedure: as §2, §3

[6] = molecular target: T6, BMI1 (Homo sapiens, UniProt P35226); test: as above; details: peptide clicked to azide agarose beads, n = 3
T6 construct: endogenous in cells; host or cells: HeLa
T6 sequence (P35226 1-326): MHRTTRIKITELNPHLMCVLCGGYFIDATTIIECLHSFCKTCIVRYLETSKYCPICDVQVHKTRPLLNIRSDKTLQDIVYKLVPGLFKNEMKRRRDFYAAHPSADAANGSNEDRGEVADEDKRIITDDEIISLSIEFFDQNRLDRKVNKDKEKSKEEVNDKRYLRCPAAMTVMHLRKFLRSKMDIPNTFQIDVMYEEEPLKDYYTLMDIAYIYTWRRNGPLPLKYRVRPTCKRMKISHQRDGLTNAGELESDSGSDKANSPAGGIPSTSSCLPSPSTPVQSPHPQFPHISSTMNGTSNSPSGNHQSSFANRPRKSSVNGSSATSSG
Procedure: as §2, §3

[7] = molecular target: T7, MDM2 (Homo sapiens, UniProt Q00987); test: as above; details: peptide clicked to azide agarose beads, n = 3
T7 construct: endogenous in cells; host or cells: HeLa
Procedure: as §2, §3

[8] = molecular target: T8, APC11 (Homo sapiens, UniProt Q9NYG5); test: as above; details: peptide clicked to azide agarose beads, 2 mg HeLa extract, 4 °C, 2 h, n = 3
T8 construct: endogenous in cells; host or cells: HeLa
Procedure: as §2, §3

[9] = molecular target: T1, APC/C; test: In vitro APC/C ubiquitination assay, fully reconstituted with recombinant APC/C, substrate securin; assay type: biochemical; set-up: made in house; host or cells: SF9 insect cells, co-infected with two baculoviruses (bacmids a gift from David Barford); details: 25 μM, lowest concentration of titration 25-100 μM, n = 3
Procedure: Next, we tested the APC/C inhibitory proficiency of H1-6 in fully reconstituted activity assays with recombinant APC/C in comparison to BH3 and the commercially available APC/C inhibitor TAME. To account for mechanistic differences in APC/C inhibition between TAME (inhibits CDC20 binding) and ^i APC11 (inhibits E2 binding), all inhibitors, E2s and CDC20 were added simultaneously to APC/C. […] We observed no difference for UBE2C and only a small (∼10%) decrease in UBE2S autoubiquitylation compared to control reactions (Figure S16B–D).
To quantify the inhibitory effectiveness of H6, its IC50 was determined. To this end, we performed in vitro APC/C ubiquitination assays in the presence of H6 titrated from 0.01 to 100 μM (Figure S17B). […]
as §1, with “Odyssey. […]” for “Odyssey.”

[10] = molecular target: T9, UBE2S (Homo sapiens, UniProt Q16763); test: In vitro E2 activity assay (autoubiquitination); assay type: biochemical; details: 100 μM, 45 min, 30 °C, Blue Silver staining, n = 3
T9 construct: gift of Sonja Lorenz (MPI, Göttingen, Germany)
T9 sequence (Q16763 1-222): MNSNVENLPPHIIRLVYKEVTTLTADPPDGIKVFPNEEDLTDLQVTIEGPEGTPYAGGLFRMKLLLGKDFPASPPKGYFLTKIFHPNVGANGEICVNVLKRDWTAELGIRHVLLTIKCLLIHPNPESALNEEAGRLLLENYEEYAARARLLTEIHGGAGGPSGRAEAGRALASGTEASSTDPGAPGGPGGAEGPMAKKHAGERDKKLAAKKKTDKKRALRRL
Procedure: UBE2C and UBE2S activity assays were performed at 30 °C in 50 mM HEPES pH 7.4, 100 mM KCl, 9 mM MgCl2, and contained 0.6 μM UBA1 (E1), 8 μM UBE2C or UBE2S, 60 μM His6-ubiquitin, and 5.6 mM ATP. It should be noted that wild-type UBE2C and UBE2S were used. The reaction was done in a volume of 15 μL, and it was quenched after 45 min with the LDS sample buffer supplemented with 100 mM DTT and subjected to SDS-PAGE followed by Blue Silver staining. Imaging of Blue Silver-stained gels was done by a quantitative near-infrared scanning system, Odyssey. It should be noted that reactions without ATP were first preincubated for 5 min at room temperature.

T4 sequence (P62877 whole entry): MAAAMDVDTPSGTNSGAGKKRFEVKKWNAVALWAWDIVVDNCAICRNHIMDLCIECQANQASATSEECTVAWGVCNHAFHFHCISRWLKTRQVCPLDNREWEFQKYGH
T5 sequence (Q13490 whole entry): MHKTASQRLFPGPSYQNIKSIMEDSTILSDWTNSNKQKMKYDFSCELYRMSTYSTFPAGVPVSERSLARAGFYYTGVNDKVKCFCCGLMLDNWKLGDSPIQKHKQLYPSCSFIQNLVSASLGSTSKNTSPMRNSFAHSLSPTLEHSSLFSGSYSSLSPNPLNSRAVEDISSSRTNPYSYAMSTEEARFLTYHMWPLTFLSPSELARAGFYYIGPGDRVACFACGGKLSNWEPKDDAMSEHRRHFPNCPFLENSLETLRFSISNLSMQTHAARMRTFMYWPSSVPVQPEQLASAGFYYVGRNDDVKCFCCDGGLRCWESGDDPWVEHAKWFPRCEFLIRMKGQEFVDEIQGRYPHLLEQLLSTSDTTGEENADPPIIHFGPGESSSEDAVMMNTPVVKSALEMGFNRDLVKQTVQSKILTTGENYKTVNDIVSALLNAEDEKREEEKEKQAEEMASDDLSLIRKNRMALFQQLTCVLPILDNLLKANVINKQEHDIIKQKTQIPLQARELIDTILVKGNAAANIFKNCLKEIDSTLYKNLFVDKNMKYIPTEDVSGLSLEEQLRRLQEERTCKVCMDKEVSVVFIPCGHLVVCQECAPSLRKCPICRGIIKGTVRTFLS
T7 sequence (Q00987 whole entry): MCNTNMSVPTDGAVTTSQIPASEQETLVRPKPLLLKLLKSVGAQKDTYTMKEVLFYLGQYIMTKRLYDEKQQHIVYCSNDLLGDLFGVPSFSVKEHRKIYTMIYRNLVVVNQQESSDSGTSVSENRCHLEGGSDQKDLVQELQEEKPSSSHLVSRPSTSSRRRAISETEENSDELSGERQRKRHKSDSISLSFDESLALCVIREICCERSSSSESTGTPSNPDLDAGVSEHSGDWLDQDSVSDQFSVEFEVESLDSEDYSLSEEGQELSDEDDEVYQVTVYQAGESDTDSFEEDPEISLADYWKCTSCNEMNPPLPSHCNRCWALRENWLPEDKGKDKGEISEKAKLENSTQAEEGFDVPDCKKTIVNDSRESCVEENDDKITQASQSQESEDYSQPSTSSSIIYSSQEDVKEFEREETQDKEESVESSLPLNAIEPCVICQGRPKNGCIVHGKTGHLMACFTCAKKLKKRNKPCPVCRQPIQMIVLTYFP
T8 sequence (Q9NYG5 whole entry): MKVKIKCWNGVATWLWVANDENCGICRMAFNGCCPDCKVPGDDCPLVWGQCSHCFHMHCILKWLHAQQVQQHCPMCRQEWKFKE
T3 sequence (P38398 whole entry): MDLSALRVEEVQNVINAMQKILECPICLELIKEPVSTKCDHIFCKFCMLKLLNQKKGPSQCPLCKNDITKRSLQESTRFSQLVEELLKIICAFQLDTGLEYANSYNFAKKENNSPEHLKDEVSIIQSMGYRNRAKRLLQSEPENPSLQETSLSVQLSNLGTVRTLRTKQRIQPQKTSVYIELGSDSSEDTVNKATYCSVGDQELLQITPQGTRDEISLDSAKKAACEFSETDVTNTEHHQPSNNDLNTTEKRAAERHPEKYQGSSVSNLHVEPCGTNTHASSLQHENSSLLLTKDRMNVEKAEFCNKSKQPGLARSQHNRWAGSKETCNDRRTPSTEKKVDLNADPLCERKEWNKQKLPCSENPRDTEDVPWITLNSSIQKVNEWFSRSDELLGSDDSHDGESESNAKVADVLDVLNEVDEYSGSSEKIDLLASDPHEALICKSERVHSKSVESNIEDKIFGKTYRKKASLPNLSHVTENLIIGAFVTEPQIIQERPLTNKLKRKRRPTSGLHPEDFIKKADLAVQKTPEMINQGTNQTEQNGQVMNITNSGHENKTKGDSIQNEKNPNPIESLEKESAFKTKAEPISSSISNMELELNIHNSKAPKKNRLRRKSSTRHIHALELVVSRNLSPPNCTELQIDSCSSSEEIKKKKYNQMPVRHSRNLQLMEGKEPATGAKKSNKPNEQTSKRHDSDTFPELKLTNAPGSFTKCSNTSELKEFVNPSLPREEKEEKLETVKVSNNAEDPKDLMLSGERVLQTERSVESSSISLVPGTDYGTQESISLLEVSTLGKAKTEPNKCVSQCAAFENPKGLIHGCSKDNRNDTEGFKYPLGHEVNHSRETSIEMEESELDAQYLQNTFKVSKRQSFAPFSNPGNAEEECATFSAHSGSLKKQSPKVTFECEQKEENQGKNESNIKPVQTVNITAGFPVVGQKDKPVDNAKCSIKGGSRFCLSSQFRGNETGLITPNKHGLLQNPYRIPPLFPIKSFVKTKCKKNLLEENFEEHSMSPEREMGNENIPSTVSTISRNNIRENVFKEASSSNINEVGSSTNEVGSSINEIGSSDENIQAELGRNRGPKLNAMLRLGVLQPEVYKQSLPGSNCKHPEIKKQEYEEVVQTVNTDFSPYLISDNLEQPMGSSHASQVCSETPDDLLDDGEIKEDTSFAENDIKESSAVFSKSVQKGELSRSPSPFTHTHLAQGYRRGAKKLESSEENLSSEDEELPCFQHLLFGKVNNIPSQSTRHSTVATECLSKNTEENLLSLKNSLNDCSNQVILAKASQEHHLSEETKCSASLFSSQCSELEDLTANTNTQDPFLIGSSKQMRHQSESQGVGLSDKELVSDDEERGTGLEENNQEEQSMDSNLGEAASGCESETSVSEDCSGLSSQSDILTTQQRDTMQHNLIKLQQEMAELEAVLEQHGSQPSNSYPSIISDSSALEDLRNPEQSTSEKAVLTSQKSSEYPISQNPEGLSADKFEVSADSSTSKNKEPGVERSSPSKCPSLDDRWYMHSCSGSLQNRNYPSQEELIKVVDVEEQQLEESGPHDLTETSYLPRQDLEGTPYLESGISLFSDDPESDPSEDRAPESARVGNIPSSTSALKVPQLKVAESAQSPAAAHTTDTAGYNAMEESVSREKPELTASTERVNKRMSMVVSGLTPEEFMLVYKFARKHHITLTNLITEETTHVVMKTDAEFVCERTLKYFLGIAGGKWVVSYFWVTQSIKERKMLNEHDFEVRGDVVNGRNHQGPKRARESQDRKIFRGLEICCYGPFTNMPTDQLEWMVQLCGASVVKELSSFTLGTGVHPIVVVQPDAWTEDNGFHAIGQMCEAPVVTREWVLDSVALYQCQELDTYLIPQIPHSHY

Q: Which “securin ubiquitylation compared to control reactions” value [1] does the source give for `C[C@@H](O)[C@H](NC(=O)[C@H](CCCNC(=N)N)NC(=O)[C@@H]1CSSC[C@H](NC(=O)[C@H](CCCNC(=N)N)NC(=O)CN)C(=O)N[C@@H](Cc2c[nH]cn2)C(=O)N[C@@H](Cc2c[nH]c3ccccc23)C(=O)NCC(=O)N2CCC[C@H]2C(=O)N[C@@H](CCC(=O)O)C(=O)N[C@@H]([C@@H](C)O)C(=O)N[C@@H](Cc2ccccc2)C(=O)N[C@@H](Cc2c[nH]c3ccccc23)C(=O)N1)C(=O)O` [BH4] (H-GRCHWGPETFWCRT-OH; disulfide 3-12) here?
A: Its value is “no such effect”.

Q: Which “precipitation of c-CBL on beads” value [2] does the source give for “Ac-[Pra]RCHWGPRTFWCR-NH2 (disulfide 3-12 (inferred); SMILES C#CC[C@H](NC(C)=O)C(=O)N[C@@H](CCCNC(=N)N)C(=O)N[C@H]1CSSC[C@@H](C(=O)N[C@@H](CCCNC(=N)N)C(N)=O)NC(=O)[C@H](Cc2c[nH]c3ccccc23)NC(=O)[C@H](Cc2ccccc2)NC(=O)[C@H]([C@@H](C)O)NC(=O)[C@H](CCCNC(=N)N)NC(=O)[C@@H]2CCCN2C(=O)CNC(=O)[C@H](Cc2c[nH]c3ccccc23)NC(=O)[C@H](Cc2c[nH]cn2)NC1=O) [Pra-BH3, BH3 with propargylglycine at the N-term for click chemistry]” here?
A: Its value is “precipitated”.

Q: What about the “precipitation of BRCA1 on beads, enrichment over input” value [3] of the same molecule?
A: Its value is “weaker”.

Q: And the “enrichment of RBX1 on beads” value ([4]; peptide clicked to azide agarose beads, 2 mg HeLa extract, 4 °C, 2 h)?
A: The value was “not”.

Q: And the “binding to RBX1, Pra-H1 versus Pra-BH3” value [4]?
A: Its value is “very weak and unchanged”.

Q: What about the “precipitation of c-IAP1 on beads, enrichment over input” value [5] of the same molecule?
A: The value was “weaker”.

Q: What about the “precipitation of BMI1 on beads, enrichment over input” value [6] of the same molecule?
A: Its value is “weaker”.

Q: And the “precipitation of MDM2 on beads” value [7]?
A: Its value is “precipitated”.

Q: What about the “enrichment of APC11 on beads” value [8] of the same molecule?
A: The value was “strong enrichment”.

Q: How did the “binding to RBX1, Pra-H1 versus Pra-BH3” value [4] turn out when `C#CC[C@H](NC(=O)[C@@H]1CCCN1C(=O)[C@H](Cc1c[nH]c2ccccc12)NC(=O)[C@H](CCCNC(=N)N)NC(C)=O)C(=O)N[C@@]1(C)CCCC=CCCC[C@@](C)(C(=O)N[C@@H](CCC(N)=O)C(=O)N[C@H](C(=O)N[C@@H](CCCNC(=N)N)C(=O)N[C@@H](CCCNC(=N)N)C(=O)N[C@@H](Cc2c[nH]c3ccccc23)C(N)=O)C(C)C)NC(=O)[C@H](CC(=O)O)NC(=O)[C@H](Cc2c[nH]c3ccccc23)NC(=O)[C@H](CCCCN)NC1=O` [Pra-H1] (Ac-RWP[Pra][S5]KWD[S5]QVRRW-NH2; staple 5-9) was run?
A: The value was “very weak and unchanged”.

Q: `CC[C@H](C)[C@@H]1NC(=O)[C@H](CCC(=O)O)NC(=O)[C@H](CCCCN)NC(=O)[C@H]([C@@H](C)CC)NC(=O)[C@](C)(NC(=O)[C@H](Cc2c[nH]c3ccccc23)NC(=O)[C@H](Cc2c[nH]c3ccccc23)NC(=O)[C@H](CCC(=O)O)NC(C)=O)CCCCCCC=CCCC[C@@](C)(C(=O)N[C@@H](CCCNC(=N)N)C(=O)N[C@@H](CCCNC(=N)N)C(=O)N[C@@H](C)C(N)=O)NC(=O)[C@H](CCCNC(=N)N)NC(=O)[C@H](CCC(N)=O)NC1=O` [H6] (Ac-EWW[R8]IKEIQR[S5]RRA-NH2; staple 4-11) was tested. Which “reduction of APC/C activity toward securin” value [9] did it give?
A: Its value is “more than 80%”.

Q: What about the “decrease in UBE2S autoubiquitylation compared to control reactions” value [10] of the same molecule?
A: Its value is ~10%.
